Measured values from PubChem BioAssay AID1259407 (Chemical Carcinogenesis Research Information System (CCRIS), 2018).
Activity calls are given as the source filed them. How the calls were made is not given here.

Tested on: CCRIS mutagenicity, Ames/micronucleus/aberration tests
Assay: CCRIS mutagenicity studies
Description: The CCRIS database contains chemical records with carcinogenicity, mutagenicity, tumor promotion, and tumor inhibition test results. It was developed by the National Cancer Institute (NCI). Data are derived from studies cited in primary journals, current awareness tools, NCI reports, and other sources. Test results have been reviewed by experts in carcinogenesis and mutagenesis.
CCRIS provides historical information from the years 1985 - 2011. It is no longer updated.
This is an archive assay for CCRIS mutagenicity studies.

[1] = Test System: AMES SALMONELLA TYPHIMURIUM, Strain/Indicator: TA98, Metabolic Activation: NONE, Method: PREINCUBATION
[2] = Test System: AMES SALMONELLA TYPHIMURIUM, Strain/Indicator: TA100, Metabolic Activation: NONE, Method: PREINCUBATION
[3] = Test System: AMES SALMONELLA TYPHIMURIUM, Strain/Indicator: TA1535, Metabolic Activation: NONE, Method: PREINCUBATION
[4] = Test System: AMES SALMONELLA TYPHIMURIUM, Strain/Indicator: TA1537, Metabolic Activation: NONE, Method: PREINCUBATION
[5] = Test System: MOUSE LYMPHOMA, Strain/Indicator: L5178Y (TK+/TK-), Metabolic Activation: RAT, LIVER, S-9, AROCLOR 1254, Method: SUSPENSION/PLATE
[6] = Test System: AMES SALMONELLA TYPHIMURIUM, Strain/Indicator: TA1535, Metabolic Activation: RAT, LIVER, S-9, AROCLOR 1254, Method: PREINCUBATION
[7] = Test System: AMES SALMONELLA TYPHIMURIUM, Strain/Indicator: TA1537, Metabolic Activation: RAT, LIVER, S-9, AROCLOR 1254, Method: PREINCUBATION
[8] = Test System: AMES SALMONELLA TYPHIMURIUM, Strain/Indicator: TA98, Metabolic Activation: NONE, Method: STANDARD PLATE
[9] = Test System: AMES SALMONELLA TYPHIMURIUM, Strain/Indicator: TA100, Metabolic Activation: NONE, Method: STANDARD PLATE
[10] = Test System: AMES SALMONELLA TYPHIMURIUM, Strain/Indicator: TA1535, Metabolic Activation: NONE, Method: STANDARD PLATE
[11] = Test System: AMES SALMONELLA TYPHIMURIUM, Strain/Indicator: TA1537, Metabolic Activation: NONE, Method: STANDARD PLATE

SMILES: CCCCCCCCCCCCO
- mutagenic call [1]: inactive; negative
- mutagenic call (Test System: AMES SALMONELLA TYPHIMURIUM, Strain/Indicator: TA98, Metabolic Activation: RAT, LIVER, S-9, KC 500, Method: PREINCUBATION): inactive; negative
- mutagenic call [2]: inactive; negative
- mutagenic call (Test System: AMES SALMONELLA TYPHIMURIUM, Strain/Indicator: TA100, Metabolic Activation: RAT, LIVER, S-9, KC 500, Method: PREINCUBATION): inactive; negative
- mutagenic call [3]: inactive; negative
- mutagenic call (Test System: AMES SALMONELLA TYPHIMURIUM, Strain/Indicator: TA1535, Metabolic Activation: RAT, LIVER, S-9, KC 500, Method: PREINCUBATION): inactive; negative
- mutagenic call [4]: inactive; negative
- mutagenic call (Test System: AMES SALMONELLA TYPHIMURIUM, Strain/Indicator: TA1537, Metabolic Activation: RAT, LIVER, S-9, KC 500, Method: PREINCUBATION): inactive; negative
- mutagenic call (Test System: AMES SALMONELLA TYPHIMURIUM, Strain/Indicator: TA1538, Metabolic Activation: NONE, Method: PREINCUBATION): inactive; negative
- mutagenic call (Test System: AMES SALMONELLA TYPHIMURIUM, Strain/Indicator: TA1538, Metabolic Activation: RAT, LIVER, S-9, KC 500, Method: PREINCUBATION): inactive; negative
- mutagenic call (Test System: E. COLI, Strain/Indicator: WP2 UVRA, Metabolic Activation: NONE, Method: PREINCUBATION): inactive; negative
- mutagenic call (Test System: E. COLI, Strain/Indicator: WP2 UVRA, Metabolic Activation: RAT, LIVER, S-9, KC 500, Method: PREINCUBATION): inactive; negative

SMILES: Cc1cc(C)c(N=Nc2c(O)c(S(=O)(=O)O)cc3cc(S(=O)(=O)O)ccc23)cc1C
- mutagenic call (Test System: AMES SALMONELLA TYPHIMURIUM, Strain/Indicator: TA100, Metabolic Activation: HAMSTER, LIVER, S-9, Method: PREINCUBATION (PRIVAL METHOD)): active; positive
- mutagenic call (Test System: MOUSE LYMPHOMA, Strain/Indicator: L5178Y (TK+/TK-), Metabolic Activation: NONE, Method: SUSPENSION/PLATE): active; positive. reevaluation of results: equivocal
- mutagenic call [5]: active; positive. reevaluation of results: equivocal

SMILES: CN(N)C=O
- mutagenic call [3]: inactive; negative
- mutagenic call [6]: inactive; negative
- mutagenic call [4]: inactive; negative
- mutagenic call [7]: inactive; negative

SMILES: CN1CC[C@@]2(C)c3cc(O)ccc3N(C)[C@@H]12
- mutagenic call (Test System: AMES SALMONELLA TYPHIMURIUM, Strain/Indicator: TA97, Metabolic Activation: NONE, Method: STANDARD PLATE): inactive; negative
- mutagenic call (Test System: AMES SALMONELLA TYPHIMURIUM, Strain/Indicator: TA97, Metabolic Activation: S-9, Method: STANDARD PLATE): inactive; negative
- mutagenic call [8]: inactive; negative
- mutagenic call (Test System: AMES SALMONELLA TYPHIMURIUM, Strain/Indicator: TA98, Metabolic Activation: S-9, Method: STANDARD PLATE): inactive; negative
- mutagenic call [9]: inactive; negative
- mutagenic call (Test System: AMES SALMONELLA TYPHIMURIUM, Strain/Indicator: TA100, Metabolic Activation: S-9, Method: STANDARD PLATE): inactive; negative
- mutagenic call (Test System: AMES SALMONELLA TYPHIMURIUM, Strain/Indicator: TA104, Metabolic Activation: NONE, Method: STANDARD PLATE): inactive; negative
- mutagenic call (Test System: AMES SALMONELLA TYPHIMURIUM, Strain/Indicator: TA104, Metabolic Activation: S-9, Method: STANDARD PLATE): inactive; negative
- mutagenic call [10]: inactive; negative
- mutagenic call (Test System: AMES SALMONELLA TYPHIMURIUM, Strain/Indicator: TA1535, Metabolic Activation: S-9, Method: STANDARD PLATE): inactive; negative
- mutagenic call [11]: inactive; negative
- mutagenic call (Test System: AMES SALMONELLA TYPHIMURIUM, Strain/Indicator: TA1537, Metabolic Activation: S-9, Method: STANDARD PLATE): inactive; negative
- mutagenic call (Test System: AMES SALMONELLA TYPHIMURIUM, Strain/Indicator: TA1538, Metabolic Activation: S-9, Method: STANDARD PLATE): inactive; negative

SMILES: NCC(=O)O
- mutagenic call (Test System: AMES SALMONELLA TYPHIMURIUM, Strain/Indicator: TA97, Metabolic Activation: NONE, Method: PREINCUBATION): inactive; negative
- mutagenic call (Test System: AMES SALMONELLA TYPHIMURIUM, Strain/Indicator: TA97, Metabolic Activation: RAT, LIVER, S-9, AROCLOR 1254, Method: PREINCUBATION): inactive; negative
- mutagenic call (Test System: AMES SALMONELLA TYPHIMURIUM, Strain/Indicator: TA98, Metabolic Activation: HAMSTER, LIVER, S-9, AROCLOR 1254, Method: PREINCUBATION): inactive; negative
- mutagenic call [1]: inactive; negative
- mutagenic call [8]: inactive; negative
- mutagenic call (Test System: AMES SALMONELLA TYPHIMURIUM, Strain/Indicator: TA98, Metabolic Activation: RAT, LIVER, S-9, AROCLOR 1254, Method: PREINCUBATION): inactive; negative
- mutagenic call (Test System: AMES SALMONELLA TYPHIMURIUM, Strain/Indicator: TA98, Metabolic Activation: RAT, LIVER, S-9, AROCLOR 1254, Method: STANDARD PLATE): inactive; negative
- mutagenic call (Test System: AMES SALMONELLA TYPHIMURIUM, Strain/Indicator: TA100, Metabolic Activation: HAMSTER, LIVER, S-9, AROCLOR 1254, Method: PREINCUBATION): inactive; negative
- mutagenic call [2]: inactive; negative
- mutagenic call [9]: inactive; negative
- mutagenic call (Test System: AMES SALMONELLA TYPHIMURIUM, Strain/Indicator: TA100, Metabolic Activation: RAT, LIVER, S-9, AROCLOR 1254, Method: PREINCUBATION): inactive; negative
- mutagenic call (Test System: AMES SALMONELLA TYPHIMURIUM, Strain/Indicator: TA100, Metabolic Activation: RAT, LIVER, S-9, AROCLOR 1254, Method: STANDARD PLATE): inactive; negative
- mutagenic call (Test System: AMES SALMONELLA TYPHIMURIUM, Strain/Indicator: TA102, Metabolic Activation: NONE, Method: PREINCUBATION): inactive; negative
- mutagenic call (Test System: AMES SALMONELLA TYPHIMURIUM, Strain/Indicator: TA102, Metabolic Activation: RAT, LIVER, S-9, AROCLOR 1254, Method: PREINCUBATION): inactive; negative
- mutagenic call (Test System: AMES SALMONELLA TYPHIMURIUM, Strain/Indicator: TA1535, Metabolic Activation: HAMSTER, LIVER, S-9, AROCLOR 1254, Method: PREINCUBATION): inactive; negative
- mutagenic call [3]: inactive; negative
- mutagenic call [10]: inactive; negative
- mutagenic call [6]: inactive; negative
- mutagenic call (Test System: AMES SALMONELLA TYPHIMURIUM, Strain/Indicator: TA1535, Metabolic Activation: RAT, LIVER, S-9, AROCLOR 1254, Method: STANDARD PLATE): inactive; negative
- mutagenic call (Test System: AMES SALMONELLA TYPHIMURIUM, Strain/Indicator: TA1537, Metabolic Activation: HAMSTER, LIVER, S-9, AROCLOR 1254, Method: PREINCUBATION): inactive; negative
- mutagenic call [4]: inactive; negative
- mutagenic call [11]: inactive; negative
- mutagenic call [7]: inactive; negative
- mutagenic call (Test System: AMES SALMONELLA TYPHIMURIUM, Strain/Indicator: TA1537, Metabolic Activation: RAT, LIVER, S-9, AROCLOR 1254, Method: STANDARD PLATE): inactive; negative
- mutagenic call (Test System: AMES SALMONELLA TYPHIMURIUM, Strain/Indicator: TA1538, Metabolic Activation: NONE, Method: STANDARD PLATE): inactive; negative
- mutagenic call (Test System: AMES SALMONELLA TYPHIMURIUM, Strain/Indicator: TA1538, Metabolic Activation: RAT, LIVER, S-9, AROCLOR 1254, Method: STANDARD PLATE): inactive; negative
- mutagenic call (Test System: MOUSE LYMPHOMA, Strain/Indicator: L5178Y (TK+/TK-), Metabolic Activation: NONE): inactive; negative
- mutagenic call (Test System: MOUSE LYMPHOMA, Strain/Indicator: L5178Y (TK+/TK-), Metabolic Activation: RAT, LIVER, S-9, AROCLOR 1254): inactive; negative
- mutagenic call [5]: inactive; negative. reevaluation of results: inconclusive
- mutagenic call (Test System: Mouse lymphoma, Strain/Indicator: L5178Y (tk+/tk-), Metabolic Activation: None, Method: Suspension/plate): active; inconclusive (previous evaluation positive)
- mutagenic call (Test System: UDS RAT PRIMARY HEPATOCYTES, Metabolic Activation: NONE): inactive; negative
